This note sets out measurements from ChEMBL document CHEMBL1133109, “Design, synthesis, and pharmacological characterization of 4-[4, 4-dimethyl-3-(4-hydroxybutyl)-5-oxo-2-thioxo-1-imidazolidinyl]- 2-iodobenzonitrile as a high-affinity nonsteroidal androgen receptor ligand” (J Med Chem, 2000).

What is called Ki is the dissociation constant of the complex between target and ligand, obtained from inhibition or displacement. Low values mean a stronger hold on the target, high ones a looser hold on the target.

For the experiment, the target named is T1, Androgen receptor (Rattus norvegicus, UniProt P15207).
T1 sequence (P15207 whole entry): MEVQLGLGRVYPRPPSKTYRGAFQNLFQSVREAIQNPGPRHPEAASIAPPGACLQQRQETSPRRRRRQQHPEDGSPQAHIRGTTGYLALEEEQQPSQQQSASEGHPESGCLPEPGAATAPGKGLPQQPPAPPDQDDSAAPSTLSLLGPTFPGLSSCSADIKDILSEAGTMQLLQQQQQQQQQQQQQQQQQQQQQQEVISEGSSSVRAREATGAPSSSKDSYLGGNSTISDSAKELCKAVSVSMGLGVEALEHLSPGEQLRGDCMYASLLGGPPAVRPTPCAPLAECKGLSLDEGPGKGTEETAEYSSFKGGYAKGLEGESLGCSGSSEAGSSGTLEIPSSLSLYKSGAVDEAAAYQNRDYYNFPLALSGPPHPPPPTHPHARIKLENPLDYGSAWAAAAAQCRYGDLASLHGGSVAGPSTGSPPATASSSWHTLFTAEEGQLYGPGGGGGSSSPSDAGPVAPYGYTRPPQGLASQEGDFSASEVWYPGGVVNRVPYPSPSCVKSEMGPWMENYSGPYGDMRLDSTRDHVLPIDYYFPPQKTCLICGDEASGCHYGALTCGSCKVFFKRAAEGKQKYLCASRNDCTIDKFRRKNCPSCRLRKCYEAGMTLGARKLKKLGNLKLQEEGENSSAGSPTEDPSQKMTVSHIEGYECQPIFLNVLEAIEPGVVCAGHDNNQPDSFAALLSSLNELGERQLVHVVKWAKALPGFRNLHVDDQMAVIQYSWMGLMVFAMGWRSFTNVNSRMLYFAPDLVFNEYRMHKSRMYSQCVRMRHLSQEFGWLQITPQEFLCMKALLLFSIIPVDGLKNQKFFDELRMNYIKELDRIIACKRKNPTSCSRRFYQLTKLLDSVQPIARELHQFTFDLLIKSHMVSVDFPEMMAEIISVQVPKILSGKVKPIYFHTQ
Description: Inhibitory constant against rat prostate cytosol androgen receptor using [3H]mibolerone
Molecule `CC1(C)C(=O)N(c2ccc(C#N)c(C(F)(F)F)c2)C(=S)N1CCCCO` returned a Ki of 2.23 nM.

In turn, `CC1(C)C(=O)N(c2ccc(C#N)c(I)c2)C(=S)N1CCCCO` yielded a Ki of 0.71 nM.

Take `C[C@@H]1CC2=CC(=O)CC[C@@H]2[C@H]2CC[C@@]3(C)[C@@H](CC[C@]3(C)O)[C@@H]21` [MIBOLERONE]: the Ki came to 0.75 nM.
